This passage reports EC50 and IC50 results from patent publication US11149008B2, “Sulfamide derivatives and preparation method and use thereof” (HitGen Ltd., priority 2015, dated 2021).

A value given as a limit tells only on which side of the number the result lay.

One test has as its system HCT-116 cells. The test can be described thus: Cell growth inhibition measurement (CCK-8), HCT-116. The format is cell-based. The following applies: Homo sapiens, HCT-116, 72 h, highest EC50 measured during one or multiple operations, read-out: Inhibition activity against cancer cells, HCT-116 (EC50). An excerpt: A HepG2 cell strain and an HCT-116 cell strain were purchased from Shanghai Institutes for Biological Sciences; a DMEM high-sugar culture medium and an MEM culture medium were purchased from Hyclone; fetal calf serum was purchased from Gibco; trypsin was purchased from Invitrogen Shanghai; a CCK-8 kit was purchased from Beyotime Institute of Biotechnology; and, the remaining cell culture mediums and other consumables were purchased from Corning China.
HepG2 cells and HCT-116 cells in the logarithmic growth phase were digested by trypsin. After the counting of uniform cell suspension, the cell density was adjusted as 1500 cells/well by a culture medium containing 10% serum. The cells were re-inoculated to a 96-well cell culture plate, and cultured to a volume of 200 μL at 37° C. in an incubator containing 5% CO2. The cells could be tested after being cultured for 24 h.
The cells cultured for 24 h were taken out from the incubator. The culture liquid in the well plate was sucked out, and 200 μL of compound solution prepared in the culture medium containing 10% fetal calf serum was added in each well. Five parallel mediums were provided for each concentration, and a DMSO culture medium was used as negative control. The culture mediums were cultured for 72 h at 37° C. in an incubator containing 5% CO2, and CCK-8 detection was performed.
A serum-free culture medium and CCK-8 solution were prepared, and CCK-8 working solution was prepared at a ratio of 10:1 (this process should be performed in dark place).
The cells cultured for 72 h were taken out from the incubator. The culture liquid in the well plate was sucked out, and 120 μL of the CCK-8 working solution was added in each well. A well plate without cells was also added with 120 μL of the CCK-8 working solution to serve as blank control. The well plates were cultured for 1 h at 37° C. in an incubator containing 5% CO2 (this process should be performed in dark place).
The well plates were taken out from the incubator, 100 μL of solution in each well was sucked out and added in a new 96-well plate, and the absorbance was measured at 450 nm (this process should be performed in dark place).
where Tx is the absorbance of the CCK-8 after the compound acts for 72 h;
C is the absorbance of the CCK-8 after the negative control wells are cultured for 72 h; and
B is the absorbance of the CCK-8 in the blank control wells.
The test results of the compounds prepared according to the embodiments during the measurement are shown in Table 3, wherein the measured highest EC50 of the compounds during one operation or multiple operations is classified according to the following description: […]

Another test deals with HDAC 1 (Homo sapiens, UniProt Q13547). The test can be described thus: Enzyme activity detection of histone deacetylase 1 (fluorogenic substrate deacetylation). The format is biochemical. The settings on record: 0.28 ng/μL HDAC 1, 10 μM substrate; IC50 class. From the text:
During the deacetylation detection of a substrate, the HDAC inhibition activity of the compound of the present invention was detected.
C: Enzyme Activity Detection of Histone Deacetylase 1
Acetyl on the substrate was removed by the HDAC 1, so that the substrate was activated, and the developing liquid added subsequently could act on the substrate to release the fluorescent group. The size of the fluorescence signal reflected the activity of the HDAC 1. The IC50 detection method for this enzyme was disclosed in Chuping Xu, Elisabetta Soragni Improved Histone Deacetylase Inhibitors as Therapeutics for the Neurdegenerative Disease Friedreich's Ataxia: A New Synthetic Route. The total reaction system (100 μL/well) contained 0.28 ng/μL of HDAC 1, 10 μM of the substrate and the compound in different concentrations. The fluorescence signal was detected online at Ex/Em=360/460. The inhibition effect of the compound was determined from the obtained data, a concentration response curve was obtained by using the inhibition effect and the concentration of the compound, and the value of IC50 was fitted according to a four-parameter model.
The activities of the compounds prepared in the embodiments against the histone deacetylases 1, 3 and 6 (i.e., HDAC 1, HDAC 3 and HDAC 6) were detected by the above methods, and the test results were shown in Table 2, where the measurements of IC50 of the compounds were classified according to the following description: […]

Chain of HDAC 1 (Q13547 whole entry, species assumed): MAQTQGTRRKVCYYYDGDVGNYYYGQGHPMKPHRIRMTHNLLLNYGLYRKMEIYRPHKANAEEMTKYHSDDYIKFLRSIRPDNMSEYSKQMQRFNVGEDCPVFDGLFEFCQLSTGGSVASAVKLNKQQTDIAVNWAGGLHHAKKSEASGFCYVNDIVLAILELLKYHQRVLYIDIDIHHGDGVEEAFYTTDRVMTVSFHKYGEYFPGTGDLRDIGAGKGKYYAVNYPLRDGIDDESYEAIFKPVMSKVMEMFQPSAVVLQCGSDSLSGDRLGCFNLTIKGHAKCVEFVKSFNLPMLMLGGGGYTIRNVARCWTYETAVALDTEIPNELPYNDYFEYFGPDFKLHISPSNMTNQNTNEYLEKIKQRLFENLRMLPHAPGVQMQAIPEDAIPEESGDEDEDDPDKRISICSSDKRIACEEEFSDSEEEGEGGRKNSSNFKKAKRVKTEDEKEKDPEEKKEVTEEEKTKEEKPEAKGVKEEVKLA

As a reminder, the EC50 is the concentration that produces a half-maximal response. Broadly, the IC50 is the midpoint of a concentration-inhibition curve. Read a high IC50 as a need for much substance. As for `CN1CCN(c2ccc(-c3ccc(S(=O)(=O)N4CC=C(C(=O)NO)CC4)cc3)cc2)CC1` [Compound 29, N-hydroxyl-1-((4′-(4-methylpiperazinyl)-[1,1′-biphenyl]-4-yl)sulfonyl)-1,2,3,6-tetrahydropyridine-4-formamide], in the test with HCT-116 cells, the concentration for a half-maximal effect (EC50) is less than 0.1 µM. Also, the 50% inhibitory concentration (IC50) on HDAC 1 was less than 0.1 µM.
